Measurements: US8445493B2, “Tetrasubstituted pyridazines hedgehog pathway antagonists” (Eli Lilly and Company, priority 2008, dated 2013)
Structures can show the parent of a compound that is named as a salt.

System: Gli1 transcript in Shh-stimulated Daoy cells
Experiment: Functional assay for measuring the inhibition of Gli1 in Daoy cells (bDNA assay)
Type: cell-based
Settings: Homo sapiens; Daoy cells stimulated with Shh conditioned media, 24 hours incubation with compound, Gli1 transcript by bDNA luminescence
Method: Biological activity is determined using a functional assay in Daoy neuronal cancer cells and measures levels of Gli1 ribonucleic acid via a bDNA (branched deoxyribonucleic acid) assay system (Panomics, Inc., Fremont, Calif.). Gli was originally discovered in a Glioblastoma cell line and encodes a zinc finger protein that is activated by Shh signaling. The maximum response is obtained by inducing Gli1 transcription in the Daoy cells with conditioned medium (human embryonic kidney, HEK-293 cells stably expressing recombinant Shh) for 24 hours and then measuring the amount of stimulated Gli1 transcript. […]
The bDNA assay system utilizes the technology of branched-chain DNA to allow amplification of a target ribonucleic acid (transcript). […] The addition of a chemilumigenic substrate during the amplification step allows for detection using luminescence. […]
Daoy cells are grown to confluency in tissue culture T225-flasks in Daoy growth media containing Minimum Essential Medium (MEM) plus 10% Fetal Bovine Serum (FBS) with […] non-essential amino acids and 1 mM sodium pyruvate. The cells are removed from the T225-flasks using trypsin ethylenediaminetetraacetic acid (EDTA), centrifuged, resuspended in media, and then counted. […]

Cc1c(-c2ccccc2)nnc(N2CCN(C(=O)NC3CCC(F)(F)CC3)[C@@H](C)C2)c1C [Example 1, (S)—N-(4,4-Difluorocyclohexyl)-4-(4,5-dimethyl-6-phenylpyridazin-3-yl)-2-methylpiperazine-1-carboxamide hydrochloride]
IC50: ~1.26 nM
